Reference: paper PMC12259270, “Sensory neuron–expressed FGF13 controls nociceptive signaling in diabetic neuropathy models” (The Journal of Clinical Investigation, 2025)
“And” between values parts separate entries of the source, which are not always exact repeats. Identical values can stand only once. “Also recorded” adds a separate entry of the source. Residues, ends and D or L forms follow the SMILES beside them. *: point of attachment. Cbz = O=C(OCc1ccccc1)*; OtBu = CC(C)(C)O*

Columns and labels:
[1] = system: FGF13 and Nav1.7 colocalization in hIPSC-derived sensory neurons; test: Immunocytochemistry, FGF13 and Nav1.7 colocalization in RealDRG; assay type: cell-based, human; parameters: Figure S6C, Mean: unit not given here; conditions: for Figure S6C, Mean: Capsaicin + PW164, N 48
Protocol: After treatment, coverslips containing hIPSC-derived sensory neurons were fixed with 4% PFA/4% sucrose for 15 minutes, permeabilized for 5 minutes using 0.1% Triton X-100 in PBS and blocked with 10% Normal Goat Serum (ThermoFisher Scientific) for 30 minutes. Cells were stained using primary antibodies ms IgG1 Nav1.7 […]
Tubulin (Abcam, catalog # ab18207; 1:2000) overnight at 4∘C in 3% BSA. Isotype specific secondary antibodies ms IgG1 Alexa 568 (Life Technologies, catalog # A-21124; 1:200), ms IgG2a Alexa 647 (Life Technologies, […]
applied for 2 hours. After washing, cell membranes were labeled using CellBrite Cytoplasmic Membrane Dye (Biotium) according to manufacturer directions. After final washing, coverslips were mounted using ProLong Gold Antifade Mountant (ThermoFisher). hIPSC-derived sensory neurons were fixed at day 14 in buffered formalin (10 wt%/vol%, Fisher Scientific 23-305-510) for 10 minutes, permeabilized in DPBS plus Triton X-100 (0.2 vol%/vol%, MilliporeSigma, T8787-100ML), blocked in DPBS plus bovine serum albumin (1 wt%/vol%, MilliporeSigma A3059-100G) and Tween-20 (0.1 vol% MilliporeSigma P1379) for 2 hours, and incubated with primary antibodies overnight. Cultures were washed twice with blocking solution and incubated 1 hour with secondary antibodies. 4′,6-diamidino-2-phenylindole dilactate (DAPI, Thermo Fisher D3571) was added for 10 minutes before washing three times in DPBS. Antibodies used include: TUJ1 (1:250, MilliporeSigma MAB1637), […]
and Alexa Fluor 555 Donkey anti-Rabbit (1:500, Thermo Fisher Scientific A-31572). Negative controls included

human Nav1.6 = biological target: T1, human Nav1.6 (Homo sapiens, UniProt Q9UQD0); test: Whole-cell patch-clamp, HEK293 cells stably expressing human Nav1.6; assay type: cell-based
T1 construct: expressed in transfected cells; host or cells: HEK293 stably expressing human Nav1.6
T1 sequence (Q9UQD0 whole entry): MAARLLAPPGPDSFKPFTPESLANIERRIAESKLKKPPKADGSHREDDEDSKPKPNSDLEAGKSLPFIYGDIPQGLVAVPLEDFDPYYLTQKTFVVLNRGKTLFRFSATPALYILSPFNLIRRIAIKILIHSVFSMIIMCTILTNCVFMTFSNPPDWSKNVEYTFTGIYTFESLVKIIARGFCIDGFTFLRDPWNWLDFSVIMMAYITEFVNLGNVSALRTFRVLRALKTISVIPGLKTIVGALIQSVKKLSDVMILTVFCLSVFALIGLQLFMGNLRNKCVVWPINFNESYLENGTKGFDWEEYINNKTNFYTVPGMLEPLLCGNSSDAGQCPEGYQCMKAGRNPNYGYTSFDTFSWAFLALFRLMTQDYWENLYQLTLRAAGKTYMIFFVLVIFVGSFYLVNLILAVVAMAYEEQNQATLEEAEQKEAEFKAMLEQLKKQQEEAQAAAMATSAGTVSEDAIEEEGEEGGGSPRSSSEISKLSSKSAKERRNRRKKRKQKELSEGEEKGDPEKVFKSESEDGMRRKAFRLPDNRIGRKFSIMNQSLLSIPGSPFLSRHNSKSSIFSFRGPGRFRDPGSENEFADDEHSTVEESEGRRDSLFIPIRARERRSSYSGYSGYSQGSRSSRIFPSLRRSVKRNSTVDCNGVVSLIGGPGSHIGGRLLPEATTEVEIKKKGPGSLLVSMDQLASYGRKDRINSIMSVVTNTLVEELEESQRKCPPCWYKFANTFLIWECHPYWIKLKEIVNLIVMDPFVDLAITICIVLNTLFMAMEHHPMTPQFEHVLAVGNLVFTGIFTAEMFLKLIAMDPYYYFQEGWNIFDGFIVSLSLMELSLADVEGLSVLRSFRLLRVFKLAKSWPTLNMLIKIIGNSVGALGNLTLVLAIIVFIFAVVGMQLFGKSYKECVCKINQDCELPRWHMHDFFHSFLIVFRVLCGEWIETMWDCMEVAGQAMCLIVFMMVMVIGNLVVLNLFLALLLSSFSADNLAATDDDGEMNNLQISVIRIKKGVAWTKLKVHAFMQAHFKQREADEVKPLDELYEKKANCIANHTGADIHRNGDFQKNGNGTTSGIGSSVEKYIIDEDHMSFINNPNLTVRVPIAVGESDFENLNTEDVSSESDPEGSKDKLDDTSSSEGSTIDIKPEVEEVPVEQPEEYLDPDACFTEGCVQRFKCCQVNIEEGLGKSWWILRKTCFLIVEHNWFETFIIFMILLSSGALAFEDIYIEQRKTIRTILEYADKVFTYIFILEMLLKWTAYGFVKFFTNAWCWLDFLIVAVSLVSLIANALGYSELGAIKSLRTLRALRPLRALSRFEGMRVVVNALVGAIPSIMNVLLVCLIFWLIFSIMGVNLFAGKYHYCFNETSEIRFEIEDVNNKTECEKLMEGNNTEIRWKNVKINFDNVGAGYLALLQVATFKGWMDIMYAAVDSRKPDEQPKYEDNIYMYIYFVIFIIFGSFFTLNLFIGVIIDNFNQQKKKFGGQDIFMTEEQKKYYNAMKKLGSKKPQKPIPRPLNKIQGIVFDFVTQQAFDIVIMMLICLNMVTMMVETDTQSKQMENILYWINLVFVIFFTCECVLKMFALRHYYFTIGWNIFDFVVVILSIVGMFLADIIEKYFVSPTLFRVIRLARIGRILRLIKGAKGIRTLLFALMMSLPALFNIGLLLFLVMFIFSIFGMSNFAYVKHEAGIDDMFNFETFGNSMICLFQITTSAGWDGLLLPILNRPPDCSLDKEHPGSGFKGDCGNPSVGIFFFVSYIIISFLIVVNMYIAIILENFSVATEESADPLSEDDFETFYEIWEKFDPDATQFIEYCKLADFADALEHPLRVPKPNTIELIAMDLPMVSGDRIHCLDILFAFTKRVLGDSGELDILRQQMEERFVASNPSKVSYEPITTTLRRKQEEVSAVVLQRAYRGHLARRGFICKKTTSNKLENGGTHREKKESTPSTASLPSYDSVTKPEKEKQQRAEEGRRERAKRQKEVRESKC
Protocol: Whole-cell patch clamp electrophysiology
HEK293-Nav1.7 cells, HEK293 stably expressing human Nav1.6 (HEK-Nav1.6), HEK293 stably expressing human Nav1.5 (HEK-Nav1.5), human hIPSC-derived sensory neurons (RealDRGTM from Anatomic Incorporated 1020F1-1M) and donor-derived DRG neurons were plated at low density on glass coverslips and processed for whole-cell patch clamp electrophysiology in voltage-clamp and/or current clamp mode. Whole-cell patch electrophysiological experiments were conducted following previously published studies (26). Current densities were obtained by dividing INa amplitude by membrane capacitance. Current –voltage relationships were generated by plotting current density as a function of the […]. Conductance (G Na) was calculated by the […]
where INa is the current amplitude at voltage Vm, and Erev is the Na+ reversal potential.
Activation curves were derived by plotting normalized GNa as a function of test potential and fitted using […]
Where GNa,Max is the maximum conductance, Va is the membrane potential of half-maximal activation, Em is the membrane voltage and k is the slope factor. For steady -state inactivation, normalized current amplitude (INa/INa,Max) at the test potential was plotted as a function of prepulse potential (Vm) and fitted using the […]
Where Vh is the potential of half-maximal inactivation, E m is the membrane voltage, and k is the slope factor.
Transient INa inactivation decay was estimated with the standard exponential equation. Inactivation time constant (tau, τ) was fitted with the following equation: […]
where I(t) is the amplitude of the current at time t and Iss is the steady-state current during a single voltage-step.
The goodness of fitting was determined by correlation coefficient (R), and the cutoff of R was set at 0.85. To observe effects on long-term inactivation (LTI), a four-step protocol was employed during which cells were subjected to four 0 mV, 20 ms depolarization pulses separated by −90 mV, 40 ms recovery intervals. To control for various cell sizes, the current densities were calculated by dividing INa peak current amplitude/membrane capacitance (Cm). To represent the fraction of channels entering into LTI, the peak INa observed during depolarization cycles 2-4 was normalized to the peak INa observed during depolarization cycle 1 (INa/INa,Cycle 1) and plotted as a function of the depolarization cycle.
The cumulative (frequency-dependent) use-dependency was determined by applying 20 pulses with a depolarization to −10 mV (50 ms duration) and 50 ms recovery intervals with a train of 20 pulses at 10 Hz from a holding potential at -70 mV. The current pulses were normalized to the first reco rded pulse and the currents at the 2nd to 20th pulses were compared. The same train was used to record use-dependency at various frequencies […]
The rate of recovery from inactivation was recorded at -80 mV with a standard repriming voltage protocol.
The cells were prepulsed to -20 mV for 20 ms to inactivate all currents, then driven back to the recovery potential (Vrec) for increasing recovery durations before the test pulse to 0 mV. The maximum pulse rate was 0.5 Hz. The […]
follows previous publications (16). The time constants were estimated from single exponential decay to time courses measured at recovery potentials ranging from -140 to -60 mV with the protocol as mentioned above.
Electrophysiological Recordings
HEK293 cells: Electrophysiological recordings in HEK293 stably expressing Nav1.7 (HEK-Nav1.7), Nav1.5 (HEK-Nav1.5) or Nav1.6 (HEK-Nav1.6) were performed at room temperature using a MultiClamp 700B or an Axopatch 200B amplifier (Molecular Devices) after incubating coverslips for 60 minutes either with 0.1% DMSO or 50 μM PW164 or ZL192 in the extracellular solution. The composition of recording solutions consisted of the […]
following salts: extracellular (mM): 140 NaCl, 3 KCl, 1 MgCl2, 1 CaCl2, 10 HEPES, 10 glucose, pH 7.3; […]
intracellular (mM): 130 CH3O3 SCs, 1 EGTA, 10 NaCl, 10 HEPES, pH 7.3. […]

C57BL/6 mice = test: Mechanical allodynia/hyperalgesia induced by intrathecal AAV2-FGF13-GFP (von Frey); assay type: in vivo, mouse
[2] = mouse, in vivo
[3] = HEK293 Nav1.6, FGF13-1a-GFP + PW164

With `COC(=O)[C@@H](NC(=O)[C@H](CCC(=O)OC(C)(C)C)NC(=O)[C@H](CC(C)C)NC(=O)[C@@H]1CCCN1C(=O)OCc1ccccc1)C(C)C` [PW164] (Cbz-PLE(OtBu)V-OMe) the “Figure S6C, Mean” value ([1]; Distance 7.1166 microns) was 361.193, the “Figure S6C, Mean” value ([1]; Distance 7.2484 microns) was 608.58 and the “Figure S6C, Mean” value ([1]; Distance 7.3801 microns) was 960.938. The “Figure S6C, Mean” value ([1]; Distance 7.5119 microns) was 1312.68, the “Figure S6C, Mean” value ([1]; Distance 7.6437 microns) was 1599.77 and the “Figure S6C, Mean” value ([1]; Distance 7.7755 microns) was 1799.6. For the same compound, the “Figure S6C, Mean” value ([1]; Distance 7.9073 microns) was 1927.38, the “Figure S6C, Mean” value ([1]; Distance 8.0391 microns) was 1925.95 and the “Figure S6C, Mean” value ([1]; Distance 8.1709 microns) was 1887.37. For the same compound, the “Figure S6C, Mean” value ([1]; Distance 8.3027 microns) was 1816.83, the “Figure S6C, Mean” value ([1]; Distance 8.4344 microns) was 1764.58 and the “Figure S6C, Mean” value ([1]; Distance 8.5662 microns) was 1693.16. For the same compound, the “Figure S6C, Mean” value ([1]; Distance 8.698 microns) was 1596.57, the “Figure S6C, Mean” value ([1]; Distance 8.8298 microns) was 1545.56 and the “Figure S6C, Mean” value ([1]; Distance 8.9616 microns) was 1561.89. For the same compound, the “Figure S6C, Mean” value ([1]; Distance 9.0934 microns) was 1608.37, the “colocalization of FGF13 and Nav1.7 after capsaicin” value ([1]; RealDRG, capsaicin + PW164) was “reduced; also recorded: reverses” and the Activation (human Nav1.6; [3]) was −29.2 ± 1.2 mV. For the same compound, the “Long-term inactivation, 2nd Pulse” value (human Nav1.6; [3]) was −67.4 ± 4.1 % maximal Na+ current, the “Long-term inactivation, 3rd Pulse” value (human Nav1.6; [3]) was −59.7 ± 4.1 % maximal Na+ current and the “Long-term inactivation, 4th Pulse” value (human Nav1.6; [3]) was −54.2 ± 4.9 % maximal Na+ current. The Peak Density (human Nav1.6; [3]) was −102.7 ± 8.8 pA/pF, the Steady state inactivation (human Nav1.6; [3]) was −50.8 ± 2.1 mV and the “Tau (τ)” value (human Nav1.6; [3]) was 1.46 ± 0.04 ms. For the same compound, the “activity on Nav1.6-mediated currents” value (human Nav1.6; HEK293 stably expressing Nav1.6 alone or coexpressing FGF13) was “does not modulate; also recorded: inactive”, the HVF (C57BL/6 mice; Figure 6E, PW164 0.7 mg/ml, 1h 30 min) was 36.67 and 43.33 and 50 and 46.67 and 33.33 and 40 and the “allodynia and hyperalgesia in AAV2-FGF13-GFP mice” value (C57BL/6 mice; day 68, PW164 5 μL, 0.7 mg/mL) was “complete recovery”. For the same compound, the brain/plasma ratio [2] was 0, the “volume of distribution (Vz)” value [2] was 3.8 ± 0.71 L/kg and the Tmax ([2]; 15 mg/kg) was 0.083.
